Results taken from patent US6683070B2, “Aqueous suspension with good redispersibility” (Senju Pharmaceutical Co., Ltd., priority 1997, dated 2004).
One block for each compound: values may come before it.

Experiments:
[1] = Surface tension of aqueous suspension (Du Noüy tension meter K122); assay type: physicochemical
Experimental: (§1) Solutions containing a suspending agent in concentrations ranging from 0.000001 to 0.5 w/v % were first prepared. A test drug was added to the solutions to prepare aqueous suspensions. The surface tension of each aqueous suspension thus prepared was measured with the Du Noüy tension meter K122 (Krüss). The suspensions were then filled into 5 ml colorless polypropylene bottles and allowed to stand at 25° C. for 4 days. Each bottle was caused to spin (60 rpm) on the variable mix rotor VMR-5 (60 rpm, manufactured by Iuchi) and the time required for redispersion was measured. In addition, the condition of the redispersed particles was visually examined. As the suspending agent, hydroxypropylmethyl cellulose [Metolose 60SH (TC-5E); manufactured by Shin-Etsu Chemical Co., Ltd.; hereinafter abbreviated as HPMC], methylcellulose (Metolose SM-25; manufactured by Shin-Etsu Chemical Co., Ltd.; abbreviated as MC), or polyvinylpyrrolidone (K30; manufactured by BASF; abbreviated as PVP) was used. As the test drug, fluorometholone 0.05 w/v % or 0.1 w/v % or indomethacin 0.2 w/v % or 1.0 w/v % was used.

[2] = Redispersibility test: redispersion time and visual condition after standing at 25° C. for 4 days; assay type: physicochemical
Experimental: as §1

[3] = fluorometholone 0.05 w/v % suspension
[4] = fluorometholone 0.1 w/v % suspension
[5] = fluorometholone 0.1 w/v % suspension, MC
[6] = fluorometholone 0.1 w/v % suspension, PVP
[7] = fluorometholone 0.05 w/v % suspension, 0.0001 to 0.002 w/v % HPMC
[8] = fluorometholone 0.1 w/v % suspension, 0.000005 to 0.0001 w/v % HPMC
[9] = fluorometholone 0.1 w/v % suspension, 0.0001 to 0.01 w/v % HPMC
[10] = fluorometholone 0.1 w/v % suspension, 0.0003 to 0.002 w/v % PVP
[11] = fluorometholone 0.1 w/v % suspension, MC 0.0001 w/v % or less
[12] = indomethacin 0.2 w/v % suspension
[13] = indomethacin 1.0 w/v % suspension
[14] = indomethacin 0.2 w/v % suspension, HPMC below 0.0001 w/v %
[15] = indomethacin 1.0 w/v % suspension, HPMC less than 0.0005 w/v %

- surface tension ([1]; fluorometholone 0.05 w/v % suspension, 0.0001 w/v % HPMC): 65.1 mN/m
- surface tension ([1]; fluorometholone 0.05 w/v % suspension, 0.001 w/v % PVP): 69.5 mN/m
- surface tension ([1]; fluorometholone 0.05 w/v % suspension, 0.002 w/v % HPMC): 50.5 mN/m
- HPMC concentration at which the decrease in surface tension almost ceased [1, 3]: 0.002 w/v %
- HPMC concentration at which the surface tension began to decline [1, 3]: 0.0001 w/v %
- PVP concentration at which the decrease in surface tension almost ceased ([1]; fluorometholone 0.05 w/v % suspension, PVP): 0.001 w/v %
- surface tension ([1]; fluorometholone 0.05 w/v % suspension, PVP at the concentration where the decline began (printed 0.0902 w/v % PVC)): 72.3 mN/m
- surface tension ([1]; fluorometholone 0.1 w/v % suspension, 0.002 w/v % PVP): 69.5 mN/m
- surface tension ([1]; fluorometholone 0.1 w/v % suspension, 0.01 w/v % MC): 54.5 mN/m
- HPMC concentration at which the decrease in surface tension almost ceased [1, 4]: 0.01 w/v
- HPMC concentration at which the surface tension began to decline [1, 4]: 0.0001 w/v %
- MC concentration at which the decrease in surface tension almost ceased [1, 5]: 0.01 w/v %
- MC concentration at which the surface tension began to decline [1, 5]: 0.0001 w/v %
- surface tension ([1]; fluorometholone 0.1 w/v % suspension, MC 0.0001 w/v % and below): ~72.5 mN/m
- PVP concentration at which the decrease in surface tension almost ceased [1, 6]: 0.002 w/v %
- PVP concentration at which the surface tension began to decline [1, 6]: 0.0003 w/v %
- surface tension ([1]; fluorometholone 0.1 w/v % suspension, PVP less than 0.0003 w/v %): ~72.5 mN/m
- condition of the dispersion [2, 7]: satisfactory
- time required for redispersion [2, 7]: about 6 seconds
- time required for redispersion [2, 8]: 2 s
- redispersion time [2, 9]: less than 4 seconds
- condition of the dispersion [2, 10]: satisfactory
- time necessary for redispersion [2, 10]: about 6 seconds
- redispersion time ([2]; fluorometholone 0.1 w/v % suspension, HPMC over 0.01 w/v %): exceeded 5 seconds
- redispersion time [2, 11]: ≤ 2 s
- redispersion time ([2]; fluorometholone 0.1 w/v % suspension, MC over 0.01 w/v %): ~20 s
- redispersion time ([2]; fluorometholone 0.1 w/v % suspension, PVP in excess of 0.002 w/v %): ≥ 18 s
Compound: CC(=O)[C@@]1(O)CC[C@H]2[C@@H]3C[C@H](C)C4=CC(=O)C=C[C@]4(C)[C@@]3(F)[C@@H](O)C[C@@]21C [fluorometholone]
- condition of the redispersed particles [2, 8]: the dispersed particles aggregated and floated, failing to give a uniform suspension
- condition of the redispersed particles [2, 9]: a uniform suspension was obtained without aggregation of suspended particles
- condition of the redispersed particles ([2]; fluorometholone 0.1 w/v % suspension, 0.0001 to 0.01 w/v % MC): redispersion taking place rapidly without aggregation of dispersed particles
- condition of the redispersed particles [2, 11]: the dispersed particles aggregated and floated, failing to give a uniform suspension

- surface tension ([1]; indomethacin 0.2 w/v % suspension, 0.01 w/v % HPMC): 48 mN/m
- HPMC concentration at which the decrease in surface tension almost ceased [1, 12]: 0.01 w/v %
- HPMC concentration at which the surface tension began to decline [1, 12]: 0.0001 w/v %
- surface tension ([1]; indomethacin 0.2 w/v % suspension, HPMC less than 0.0001 w/v %): ~72 mN/m
- surface tension ([1]; indomethacin 1.0 w/v % suspension, 0.005 w/v % HPMC): 49.7 mN/m
- HPMC concentration at which the decrease in surface tension almost ceased [1, 13]: 0.005 w/v %
- HPMC concentration at which the surface tension began to decline [1, 13]: 0.0005 w/v %
- surface tension ([1]; indomethacin 1.0 w/v % suspension, HPMC below 0.0005 w/v %): ~72.73 mN/m
- redispersion time [2, 14]: ≤ 7 s
- redispersion time ([2]; indomethacin 0.2 w/v % suspension, HPMC over 0.01 w/v %): exceeding 12 seconds
- redispersion time ([2]; indomethacin 1.0 w/v % suspension, HPMC exceeded 0.005 w/v %): more than 20 seconds
- redispersion time [2, 15]: not more than 7 seconds
Compound: COc1ccc2c(c1)c(CC(=O)O)c(C)n2C(=O)c1ccc(Cl)cc1 [indomethacin]
- condition of the redispersed particles ([2]; indomethacin 0.2 w/v % suspension, 0.0001 to 0.01 w/v % HPMC): the drug being rapidly redispersed without aggregation
- condition of the redispersed particles [2, 14]: the dispersed particles aggregated and floated, failing to give a uniform suspension
- condition of the redispersed particles ([2]; indomethacin 1.0 w/v % suspension, 0.0005 to 0.005 w/v % HPMC): the drug particles being rapidly redispersed without aggregation
- condition of the redispersed particles [2, 15]: the dispersed particles aggregated and floated, failing to give a uniform suspension
